Data: patent US8933065B2, “N-benzylamide substituted derivatives of 2-(acylamido)acetic acid and 2-(acylamido)propionic acids: potent neurological agents” (The University of North Carolina at Chapel Hill, priority 2008, dated 2015)
Read-outs that look alike come from different tables or passages of the source.

Columns and labels:
[1] = tested on: maximal electroshock (MES)-induced seizures; experiment: Maximal electroshock seizure (MES) test, rat (po); type: in vivo; conditions: rat, time (h) in brackets, Table 2
Protocol: The maximal electroconvulsive shock (MES) test is regarded as a standard screen for anticonvulsant activity in terms of inhibition of seizure spread in generalized tonic-clonic seizures.
Groups of at least 8 male albino CF No. 1 mice or male albino Sprague-Dawley rats are treated with 10 mL/kg i.p. or 4 mL/kg p.o. of the test compound solution, respectively. The electrical stimulus in the MES test is 50 mA at 60 Hz for mice and 150 mA at 60 Hz for rats, both delivered for 0.2 sec. Abolition of the hind leg tonic extensor component of the seizure is used as the endpoint.

behavioral toxicity [2] = experiment: Toxicity (behavioral toxicity), rat (po); type: in vivo; conditions: time (h) in brackets, Table 2
Protocol: Tests are conducted in groups of at least 8 mice or rats to determine the intrinsic neurotoxicity (neuromuscular impairment) after administration of the test compound by the route of administration to be used in the pharmacology studies. Neurotoxicity is determined in male CF No 1 mice by the rotarod procedure. Inability of the mouse to maintain its equilibrium in 3 trials during 1 min on this rotating rod (6 rpm) is used as an indication of such impairment. In Sprague-Dawley rats, minimal motor impairment (MMI) is determined by overt evidence of ataxia, abnormal gait, and stance.

[3] = tested on: hippocampal kindled seizures; experiment: Hippocampal kindling test, rats; type: in vivo; conditions: for Preliminary Hippocampal Kindling Test, After discharge duration, Drug / Preliminary Hippocampal Kindling Test, Seizure Score, Drug: rats; for Preliminary Hippocampal Kindling Test, Seizure Score, Drug: after drug (pre-drug score 4-5)
Protocol: The kindling model provides a tool to predict a test compound's activity in complex partial seizures.
Male albino Sprague-Dawley rats (n=8) are kindled to a Stage 5 behavioral seizure. They are treated with an appropriate i.p. dose of the test compound after a 1-week, stimulus-free period. The test compound is evaluated for its effect on kindled motor seizures (seizures scores of 4 and 5), limbic behavior seizures (seizure scores between 1 and 3) and after-discharge duration. After 15 min, each rat is stimulated every 30 min for 3-4 h. Following each stimulation, individual seizure scores and after-discharge duration are recorded. The group mean and standard error of the mean (SEM) are calculated for each parameter.

[4] = tested on: maximal electroshock (MES)-induced seizures; conditions: rat, po; Table 3, Ref 16, 32; cited from earlier work
[5] = tested on: neurologic toxicity (rotorod test); conditions: mice, ip, Table 3, Ref 30, 16, 32; cited from earlier work
[6] = tested on: maximal electroshock (MES)-induced seizures; experiment: Maximal electroshock seizure (MES) test, mice (ip); type: in vivo; conditions: mice, ip, time (h) in brackets, Table 2, footnotes not given
[7] = tested on: mechanical allodynia after partial sciatic nerve ligation; experiment: Partial sciatic nerve ligation model, rats (ip); type: in vivo; conditions: dose 12, p < 0.05
behavioral toxicity [8] = conditions: rat, po; Table 3, Ref 16, 32; cited from earlier work

Row | Compound | MES, ED50 [1] | Tox, TD50 (behavioral toxicity [2]) | Preliminary Hippocampal Kindling Test, After discharge duration, Drug [3] | Preliminary Hippocampal Kindling Test, Seizure Score, Drug [3] | MES, ED50 [4] | Tox, TD50 [5] | ED50 ([6]; Mus musculus) | fold attentaution of mechanical allodynia at 1 h [7] | ED50 ([3]; Rattus norvegicus, ip, read-out: Hippocampal Kindled Rats (ip) ED50 (inteval)) | MES, ED50 [6] | Tox, TD50 (behavioral toxicity [8])
1 | O=C1NC(=O)C(c2ccccc2)(c2ccccc2)N1 [phenytoin, reference compound] | 30 [4] | ^hNo ataxia observed up to 3000 mg/kg. | 51 s | 3 | 30 [4.0] milligrams per kilogram | 66 [2.0] milligrams per kilogram | – | – | – | – | –
2 | COC[C@@H](NC(C)=O)C(=O)NCc1ccc(OCc2cccc(F)c2)cc1 [(R)-3, (R)-2-Acetamido-N-(4-(3-fluorobenzyloxy)benzyl)-3-methoxypropanamide] | – | – | 0 s | 0 | – | – | 13 mg/kg | 11.2 fold attentaution of mechanical | 12 mg/kg | – | –
3 | CCC1(c2ccccc2)C(=O)NC(=O)NC1=O [Phenobarbital, reference compound] | – | – | – | – | – | – | – | – | – | 22 [1] | 61 [0.5] milligrams per kilogram
